Test results taken from patent publication US9758492B2, “IDO inhibitors” (Bristol-Myers Squibb Company, priority 2013, dated 2017).

molecular target: IDO (Homo sapiens, UniProt P14902); test: LLE_IDO_ABS_DR (IDO assay)
Sequence (P14902 whole entry): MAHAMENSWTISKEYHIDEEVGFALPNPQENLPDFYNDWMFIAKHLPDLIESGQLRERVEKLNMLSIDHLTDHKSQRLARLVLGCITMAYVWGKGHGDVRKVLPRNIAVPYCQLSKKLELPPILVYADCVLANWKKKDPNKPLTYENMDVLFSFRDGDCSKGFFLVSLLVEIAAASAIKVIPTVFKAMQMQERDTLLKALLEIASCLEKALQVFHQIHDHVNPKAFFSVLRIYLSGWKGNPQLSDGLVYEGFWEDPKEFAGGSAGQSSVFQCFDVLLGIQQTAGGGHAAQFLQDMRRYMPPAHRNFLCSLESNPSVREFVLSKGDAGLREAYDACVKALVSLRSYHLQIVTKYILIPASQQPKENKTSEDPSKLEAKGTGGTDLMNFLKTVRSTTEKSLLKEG

First: Cc1ccc(NC(=O)Nc2cc(-c3ccccc3C(=O)O)ccc2N(CCC(F)(F)F)CC(C)C)cc1 [Example 198, 4′-(isobutyl(3,3,3-trifluoropropyl)amino)-3′-(3-(p-tolyl)ureido)-[1,1′-biphenyl]-2-carboxylic acid]
Second: Cc1ccc(NC(=O)Nc2cc(-c3ccccc3C(=O)O)ccc2N(CCC(C)C(F)(F)F)CC(C)C)cc1 (centres unmarked) [Example 205, 4′-(isobutyl (4,4,4-trifluoro-3-methylbutyl)amino)-3′-(3-(p-tolyl)ureido)-[1,1′-biphenyl]-2-carboxylic acid]
The IC50 of the first is 10-fold higher: 210 nM for the first, 20 nM for the second. The second is the more potent here.

Compared with Cc1ccc(NC(=O)Nc2cc(-c3ccccc3-c3nnn[nH]3)ccc2N(CCC(F)(F)F)CC(C)C)cc1 [Example 199, 1-(4-(isobutyl(3,3,3-trifluoropropyl)amino)-2′-(1H-tetrazol-5-yl)-[1,1′-biphenyl]-3-yl)-3-(p-tolyl)urea], Cc1ccc(NC(=O)Nc2cc(-c3ccccc3-c3nnn[nH]3)ccc2N(CCC(C)C(F)(F)F)CC(C)C)cc1 (centres unmarked) [Example 202, 1-(4-(isobutyl(4,4,4-trifluoro-3-methylbutyl)amino)-2′-(1H-tetrazol-5-yl)-[1,1′-biphenyl]-3-yl)-3-(p-tolyl)urea] is 6-fold lower in IC50: 60 nM for the first, 10 nM for the second. The second is the more potent here.

First: Cc1ccc(NC(=O)Nc2cc(-c3cc(F)ccc3C(=O)O)ccc2N(CCC(F)(F)F)CC(C)C)cc1 [Example 200, 5-fluoro-4′-(isobutyl (3,3,3-trifluoropropyl)amino)-3′-(3-(p-tolyl)ureido)-[1,1′-biphenyl]-2-carboxylic acid]
Second: Cc1ccc(NC(=O)Nc2cc(-c3cc(F)ccc3C(=O)O)ccc2N(CCC(C)C(F)(F)F)CC(C)C)cc1 (centres unmarked) [Example 203, 5-fluoro-4′-(isobutyl (4,4,4-trifluoro-3-methylbutyl)amino)-3′-(3-(p-tolyl)ureido)-[1,1′-biphenyl]-2-carboxylic acid]
The IC50 of the first is 15-fold higher: 110 nM for the first, 7.31 nM for the second. The second is the more potent here.

CC(C)CN(CCC(C)C(F)(F)F)c1ccc(-c2ccccc2-c2nnn[nH]2)cc1NC(=O)Nc1ccccc1F (centres unmarked) [Example 201, 1-(2-fluorophenyl)-3-(4-(isobutyl(4,4,4-trifluoro-3-methylbutyl)amino)-2′-(1H-tetrazol-5-yl)-[1,1′-biphenyl]-3-yl)urea] and CC(C)CN(CCC(C)C(F)(F)F)c1ccc(-c2cc(F)ccc2C(=O)O)cc1NC(=O)Nc1ccccc1F (centres unmarked) [Example 204, 5-fluoro-3′-(3-(2-fluorophenyl)ureido)-4′-(isobutyl(4,4,4-trifluoro-3-methylbutyl)amino)-[1,1′-biphenyl]-2-carboxylic acid] are within 1.5-fold of each other in IC50: 4.46 nM for the first, 5.26 nM for the second.

First: Cc1ccc(NC(=O)Nc2cc(-c3ccccc3C(=O)O)ccc2Nc2ccccc2C(C)(C)C)cc1 [Example 206, 4′((2-(tert-butyl)phenyl)amino)-3′-(3-(p-tolyl)ureido)-[1,1′-biphenyl]-2-carboxylic acid]
Second: Cc1ccc(NC(=O)Nc2cc(-c3ccccc3-c3nnn[nH]3)ccc2Nc2ccccc2C(C)(C)C)cc1 [Example 208, 1-(4-((2-(tert-butyl)phenyl)amino)-2′-(1H-tetrazol-5-yl)-[1,1′-biphenyl]-3-yl)-3-(p-tolyl)urea]
The IC50 of the first is 12-fold higher: 600 nM for the first, 50 nM for the second. The second is the more potent here.

First: CN(c1ccc(-c2ccccc2-c2nnn[nH]2)cc1NC(=O)Nc1ccccc1F)c1ccccc1C(C)(C)C [Example 207, 1-(4-((2-(tert-butyl)phenyl) (methyl)amino)-2′-(1H-tetrazol-5-yl)-[1,1′-biphenyl]-3-yl)-3-(2-fluorophenyl)urea]
Second: Cc1ccc(NC(=O)Nc2cc(-c3ccccc3-c3nnn[nH]3)ccc2N(C)c2ccccc2C(C)(C)C)cc1 [Example 210, 1-(4-((2-(tert-butyl)phenyl)(methyl)amino)-2′-(1H-tetrazol-5-yl)-[1,1′-biphenyl]-3-yl)-3-(p-tolyl)urea]
The IC50 of the first is 1.6-fold lower: 130 nM for the first, 210 nM for the second. The first is the more potent here.

Going from COc1ccc(-c2ccc(N(C)c3ccccc3C(C)(C)C)c(NC(=O)Nc3ccccc3F)c2)cc1C(=O)O [Example 209, 4′-((2-(tert-butyl)phenyl) (methyl)amino)-3′-(3-(2-fluorophenyl)ureido)-4-methoxy-[1,1′-biphenyl]-3-carboxylic acid] to CC(C)CN(c1cc(F)c(-c2ccccc2C(=O)O)cc1NC(=O)Nc1ccccc1F)C1CCCCC1 [Example 228, 4′-(cyclohexyl(isobutyl)amio-no)-2′-fluoro-5′-(3-(2-fluorophenyl)ureido) biphenyl-2-carboxylic acid], the IC50 falls from 560 nM to 1.74 nM (320-fold).

Cc1ccc(NC(=O)Nc2cc(-c3ccccc3C(=O)O)c(F)cc2N(CC(C)C)C2CCCCC2)cc1 [Example 225] and Cc1ccc(NC(=O)Nc2cc(-c3ccccc3-c3nnn[nH]3)c(F)cc2N(CC(C)C)C2CCCCC2)cc1 [Example 227, 1-(4-(cyclohexyl(isobutyl)ami-no)-6-fluoro-2′-(1H-tetrazol-5-yl)biphenyl-3-yl)-3-p-tolylurea] are within 1.5-fold of each other in IC50: 2.52 nM for the first, 2.91 nM for the second.

CC(C)CN(c1cc(F)c(-c2cc(F)ccc2C(=O)O)cc1NC(=O)Nc1ccc(F)cc1F)C1CCCCC1 [Example 226, 4′-(cyclohexyl(isobutyl)ami-no)-5′-(3-(2,4-difluorophenyl)ureido)-2′,5-difluoro-[1,1′-biphenyl]-2-carboxylic acid] and CC(C)CN(c1cc(F)c(-c2cc(F)ccc2C(=O)O)cc1NC(=O)Nc1ccccc1F)C1CCCCC1 [Example 229, 4′-(cyclohexyl(isobutyl)ami-no)-2′,5-difluoro-5′-(3-(2-fluorophenyl)ureido) biphenyl-2-carboxylic acid] are within 1.5-fold of each other in IC50: 2.67 nM for the first, 2.56 nM for the second.

First: CC(C)CN(c1cc(F)c(-c2ccccc2C(=O)O)cc1NC(=O)Nc1ccc(F)cc1F)C1CCCCC1 [Example 230, 4′-(cyclohexyl(isobutyl)ami-no)-5′-(3-(2,4-difluorophenyl)ureido)-2′-fluorobiphenyl-2-carboxylic acid]
Second: Cc1ccc(NC(=O)Nc2cc(-c3ccccc3C(=O)NS(=O)(=O)C(F)(F)F)ccc2N(CC(C)C)CC(C)C)cc1 [Example 234]
The IC50 of the first is 4400-fold lower: 2.14 nM for the first, 9370 nM for the second. The first is the more potent here.

Cc1ccc(NC(=O)Nc2cc(-c3ccccc3C(=O)NS(C)(=O)=O)ccc2N(CC(C)C)CC(C)C)cc1 [Example 232, 4′-(Diisobutylamino)-N-(methylsulfonyl)-3′-(3-(p-tolyl)ureido)-[1,1′-biphenyl]-2-carboxamide] and CC(C)CN(CC(C)C)c1ccc(-c2ccccc2-c2nnn[nH]2)cc1NC(=O)Nc1ccccn1 [Example 238, 1-(4-(Diisobutylamino)-2′-(1H-tetrazol-5-yl)-[1,1′-biphenyl]-3-yl)-3-(pyridin-2-yl)urea] are within 1.5-fold of each other in IC50: 660 nM for the first, 750 nM for the second.

First: Cc1ccc(NC(=O)Nc2cc(-c3ccccc3-c3nnn[nH]3)ccc2N2CC(C)CC(C)C2)cc1 (centres unmarked) [Example 235, 1-(4-(3,5-Dimethylpiperidin-1-yl)-2′-(1H-tetrazol-5-yl)-[1,1′-biphenyl]-3-yl)-3-(p-tolyl)urea]
Second: CC1CC(C)CN(c2ccc(-c3ccccc3-c3nnn[nH]3)cc2NC(=O)Nc2ccc(F)cc2)C1 (centres unmarked) [Example 236]
The IC50 of the first is 2.7-fold lower: 790 nM for the first, 2140 nM for the second.

Compared with CC1CC(C)CN(c2ccc(-c3ccccc3-c3nnn[nH]3)cc2NC(=O)Nc2ccccc2F)C1 (centres unmarked) [Example 237], CC(C)CN(CC(C)C)c1ccc(-c2ccccc2-c2nnn[nH]2)cc1NC(=O)Nc1ncccn1 [Example 239, 1-(4-(Diisobutylamino)-2′-(1H-tetrazol-5-yl)-[1,1′-biphenyl]-3-yl)-3-(pyrimidin-2-yl)urea] is 3-fold higher in IC50: 1290 nM for the first, 3860 nM for the second.
